Source: ChEMBL document CHEMBL1128011, “Discovery of nonpeptide potent conformationally restricted angiotensin II receptor antagonists” (Bioorg Med Chem Lett, 1994)

Biological target: T1, Type-1 angiotensin II receptor B (Rattus norvegicus, UniProt P29089)
T1 sequence (P29089 whole entry): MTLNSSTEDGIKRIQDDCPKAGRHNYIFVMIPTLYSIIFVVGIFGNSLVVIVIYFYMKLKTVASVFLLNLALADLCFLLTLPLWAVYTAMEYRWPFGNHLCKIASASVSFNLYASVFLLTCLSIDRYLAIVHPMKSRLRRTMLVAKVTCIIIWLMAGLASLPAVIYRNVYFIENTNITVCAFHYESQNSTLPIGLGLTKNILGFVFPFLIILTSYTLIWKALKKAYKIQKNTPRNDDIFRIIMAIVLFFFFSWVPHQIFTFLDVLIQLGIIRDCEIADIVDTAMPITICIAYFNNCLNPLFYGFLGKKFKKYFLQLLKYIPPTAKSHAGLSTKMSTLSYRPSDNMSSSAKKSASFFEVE
Assay: Inhibition of [125-I]-labeled angiotensin II binding to AT1 receptor in rat uterine membranes
Type: cell membranes, Membrane
Settings: not given

| SMILES | IC50 [nM] |
| --- | --- |
| CCCCc1ncc2n1[C@H](c1ccc(-c3ccccc3-c3nnn(C(c4ccccc4)(c4ccccc4)c4ccccc4)n3)cc1)CC[C@@H]2N1C(=O)CCC1=O | > 10000 |
| CCCCc1ncc2n1C(c1ccc(-c3ccccc3-c3nnn[nH]3)cc1)CC=C2 (stereo not given) | 120 |
| CCCCn1nc2n(c1=O)C(c1ccc(-c3ccccc3-c3nnn(C(c4ccccc4)(c4ccccc4)c4ccccc4)n3)cc1)CCC2CCC (stereo not given) | > 10000 |
| CCCCc1ncc2n1[C@H](c1ccc(-c3ccccc3-c3nnn(C(c4ccccc4)(c4ccccc4)c4ccccc4)n3)cc1)C[C@@H](Br)[C@@H]2N1C(=O)CCC1=O | > 10000 |
| CCCCc1nc(Cl)c2n1[C@H](c1ccc(-c3ccccc3-c3nn[nH]n3)cc1)CC[C@@H]2N1C(=O)CCC1=O | 11 |
| CCCCc1ncc2n1[C@H](c1ccc(-c3ccccc3-c3nn[nH]n3)cc1)CC[C@@H]2N1C(=O)CCC1=O | 15 |
| CCCCc1cn(Cc2ccc(-c3ccccc3-c3nnn(C(c4ccccc4)(c4ccccc4)c4ccccc4)n3)cc2)c(CCCC)n1 | > 10000 |
| CCCCc1nc(CCCC)n2c1C=CCC2c1ccc(-c2ccccc2-c2nn[nH]n2)cc1 (stereo not given) | 190 |

Results, then the compound that gave them:

| IC50 [nM] | SMILES |
| --- | --- |
| > 10000 | CCCCn1nc2n(c1=O)C(c1ccc(-c3ccccc3-c3nn[nH]n3)cc1)CCC2 (stereo not given) |
| 63 | CCCCc1cn(Cc2ccc(-c3ccccc3-c3nnn[nH]3)cc2)c(CCCC)n1 |

Biological target: T1, Type-1 angiotensin II receptor B
Assay: Displacement of [125-I]-labeled angiotensin II from Angiotensin II receptor, type 1 of rat uterine membranes
Type: cell membranes, Membrane
Settings: not given

| SMILES | IC50 [µM] |
| --- | --- |
| CCCCc1ncc2n1C(c1ccc(-c3ccccc3-c3nnn[nH]3)cc1)CC=C2 (stereo not given) | > 10 |
| CCCCn1nc(C(CCC)CCO)n(Cc2ccc(-c3ccccc3-c3nnn(C(c4ccccc4)(c4ccccc4)c4ccccc4)n3)cc2)c1=O (stereo not given) | > 10 |
| CCCCn1nc2n(c1=O)C(c1ccc(-c3ccccc3-c3nnn(C(c4ccccc4)(c4ccccc4)c4ccccc4)n3)cc1)CCC2CCC (stereo not given) | > 10 |
| CCCCn1nc(C(CCC)CC2=NC(C)(C)CO2)n(Cc2ccc(-c3ccccc3-c3nnn(C(c4ccccc4)(c4ccccc4)c4ccccc4)n3)cc2)c1=O (stereo not given) | > 10 |
| CCCCN1N=C(CCC)/C(=C/c2ccc(-c3ccccc3-c3nn[nH]n3)cc2)C1=O | 45 |
| CCCCN1N=C(CCC)C(Cc2ccc(-c3ccccc3-c3nn[nH]n3)cc2)C1=O (stereo not given) | 0.5 |
| CCCCc1nn(CCCC)c(=O)n1Cc1ccc(-c2ccccc2-c2nnn(C(c3ccccc3)(c3ccccc3)c3ccccc3)n2)cc1 | > 10 |
| CCCCn1nc2n(c1=O)C(c1ccc(-c3ccccc3-c3nn[nH]n3)cc1)CCC2CCC (stereo in doubt; 13) | 1.6 |

Next, values leading:

| IC50 [µM] | SMILES |
| --- | --- |
| > 10 | CCCCn1nc(C(Br)CCC)n(Cc2ccc(-c3ccccc3-c3nnn(C(c4ccccc4)(c4ccccc4)c4ccccc4)n3)cc2)c1=O (stereo not given) |
| > 10 | CCCC1CCC(c2ccc(-c3ccccc3-c3nnn[nH]3)cc2)n2c1n[nH]c2=O (stereo not given) |
| 0.005 | CCCCc1nn(CCCC)c(=O)n1Cc1ccc(-c2ccccc2-c2nnn[nH]2)cc1 |
| > 10 | CCCCn1nc(C(CCC)CCBr)n(Cc2ccc(-c3ccccc3-c3nnn(C(c4ccccc4)(c4ccccc4)c4ccccc4)n3)cc2)c1=O (stereo not given) |
| 1.8 | CCCCn1nc2n(c1=O)C(c1ccc(-c3ccccc3-c3nn[nH]n3)cc1)CCC2CCC (stereo in doubt; 12) |

Species on record: Oryctolagus cuniculus
Assay: Compound was tested in vitro for its ability to antagonize the AII-mediated contraction of rabbit aortic rings
Type: functional, Aorta
Settings: not given

| SMILES | pA2 |
| --- | --- |
| CCCCc1ncc2n1[C@H](c1ccc(-c3ccccc3-c3nn[nH]n3)cc1)CC[C@@H]2N1C(=O)CCC1=O | 8.6 |

Same assay, conditions: Oryctolagus cuniculus, Aorta; read-out: pA2 (converted)

| SMILES | Kb [nM] |
| --- | --- |
| CCCCc1nc(Cl)c2n1[C@H](c1ccc(-c3ccccc3-c3nn[nH]n3)cc1)CC[C@@H]2N1C(=O)CCC1=O | 1.58 |
